In US20240116877A1, “KIT KINASE INHIBITORS AND METHODS OF USE THEREOF” (Deciphera Pharmaceuticals, LLC, priority 2021, published 2024):
Like-named read-outs stand apart in the source and are kept apart here.

Tests used:
[1] = test system: Ba/F3 KIT mutant cells; assay: Ba/F3 mutant KIT Cell Proliferation Assays (resazurin); assay type: cell-based; conditions: Mus musculus, BaF3
Procedure: Ba/F3 KIT Mutant Cell Line Transduction and Expansion
Several different KIT cDNA encoding various primary and secondary mutations were cloned into a pLV(Exp]-CMV>(cDNA):IRES:puro vector. These vectors were constructed and packaged by VectorBuilder.
Exponentially grown Ba/F3 cells (1×10^6 cells in 1 ml medium) were infected with 60 μl of viral suspension in a 6-well plate in the presence of mIL-3 (10 ng/ml) and polybrene (7.5 μg/ml) (Vector Builder) and incubated for 16 h. After 16 h, the cells were centrifuged, and viral supernatant was discarded. The cells were then re-suspended in fresh medium and allowed to recover for another day. After 72 h post infection, the cells were seeded with complete medium with mIL-3 and with 1 μg/ml puromycin added to medium for selection. After 48 h, cells without viral infection die, whereas successfully transduced cells were collected and changed to fresh medium with 5 ng/ml of IL-3. After a week or two with gradual withdrawal of mIL3 the cells that can continue to proliferate in the absence of mIL3 were exponentially expanded and were frozen down for banking.
Ba/F3 mutant KIT Cell Proliferation Assays
(§1) A serial dilution of test compound was dispensed into a 384-well black clear bottom plate (Corning, Corning, NY). Six hundred and twenty-five cells were added per well in 50 μL complete growth medium. Plates were incubated for 68 h at 37° C., 5% CO2, 95% humidity. At the end of the incubation period 10 μL of a 440 μM solution of resazurin (Sigma, St. Louis, MO) in PBS was added to each well and incubated for an additional 5 h at 37° C., 5% CO2, 95% humidity. Plates were read on a Synergy2 reader (Biotek, Winooski, VT) using an excitation of 540 nm and an emission of 600 nm. Data was analyzed using Prism software (Graphpad, San Diego, CA) to calculate IC50 values.

[2] = biological target: c-KIT kinase (uKIT) (Homo sapiens (Human), UniProt P10721); assay: Biochemical Assay for uKIT (coupled pyruvate kinase/lactate dehydrogenase assay); conditions: Inhibition of biochemical activity of uKIT kinase; 1 mM ATP
Procedure: Biochemical Assay for uKIT
Activity of c-KIT kinase (SEQ. ID NO. 1 or SEQ. ID NO. 2) was determined spectroscopically using a coupled pyruvate kinase/lactate dehydrogenase assay that continuously monitors the ATP hydrolysis-dependent oxidation of NADH (e.g., Schindler et al. Science (2000) 289: 1938-1942). Assays were conducted in 384-well plates (100 μL final volume) using 16 nM (Decode, SEQ ID No. 1) or 4.36 nM (Signal Chem, SEQ. ID No. 2), 0.7 mg/mL PE4Y substrate, 1.5 units pyruvate kinase, 2.1 units lactate dehydrogenase, 1 mM phosphoenol pyruvate, 0.28 mM NADH and 1 mM ATP in assay buffer (100 mM Tris, pH 7.5, 15 mM MgCl2, 0.5 mM DTT, 0.1% octyl-glucoside, 0.002% (w/v) BSA, and 0.002% Triton X-100). Inhibition of KIT was measured by adding serial diluted test compound (final assay concentration of 1% DMSO). A decrease in absorption at 340 nm was monitored continuously for 6 h at 30° C. on a multi-mode microplate reader (BioTek). The reaction rate was calculated using the 2-3 h time frame. The reaction rate at each concentration of compound was converted to percent inhibition using controls (i.e., reaction with no test compound and reaction with a known inhibitor) and IC50 values were calculated using software routines in Prism (GraphPad software).

[3] = test system: GIST 430 cells; assay: GIST 430 Cell Proliferation Assay (resazurin); assay type: cell-based; conditions: Homo sapiens; GIST430 cell proliferation
Procedure: GIST 430 Cell Proliferation Assay
as §1, with “a 96-well” for “a 384-well”, “NY). Five thousand” for “NY). Six hundred and twenty-five”, “in 200” for “in 50”, “for 115” for “for 68”, “at 37 degrees Celsius,” for “at 37° C.,”, “period 40” for “period 10”

[4] = Ba/F3 KIT AYdup-V654A mutant cell proliferation, read-out: AYdup-V654A IC50
[5] = Ba/F3 KIT exon11del-V654A mutant cell proliferation, read-out: exon11del-V654A IC50
[6] = Ba/F3 KIT exon11del-Y823D mutant cell proliferation, read-out: exon11del-Y823D IC50

c-KIT kinase (uKIT), sequence (P10721 other isoform, or with tags, fused parts or gaps): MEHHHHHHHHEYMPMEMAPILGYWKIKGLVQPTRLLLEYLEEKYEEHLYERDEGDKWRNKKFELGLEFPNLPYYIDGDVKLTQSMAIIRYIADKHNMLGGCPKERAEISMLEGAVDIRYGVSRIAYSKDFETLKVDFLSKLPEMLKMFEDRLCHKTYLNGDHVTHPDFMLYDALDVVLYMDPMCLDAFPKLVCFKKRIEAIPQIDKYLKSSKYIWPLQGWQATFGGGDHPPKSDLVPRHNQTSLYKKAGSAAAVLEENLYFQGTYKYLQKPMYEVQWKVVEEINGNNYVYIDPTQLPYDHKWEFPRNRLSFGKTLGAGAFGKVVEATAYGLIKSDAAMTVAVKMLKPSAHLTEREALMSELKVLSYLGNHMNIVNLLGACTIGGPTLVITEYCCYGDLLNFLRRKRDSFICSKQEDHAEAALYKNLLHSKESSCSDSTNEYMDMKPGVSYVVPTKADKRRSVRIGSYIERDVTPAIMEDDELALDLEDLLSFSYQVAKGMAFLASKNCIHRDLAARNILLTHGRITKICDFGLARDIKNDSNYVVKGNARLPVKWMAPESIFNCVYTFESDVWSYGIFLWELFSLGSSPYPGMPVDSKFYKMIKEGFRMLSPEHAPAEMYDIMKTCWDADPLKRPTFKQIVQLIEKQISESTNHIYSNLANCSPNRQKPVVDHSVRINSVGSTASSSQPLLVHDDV

IC50 [1, 4] [nM]	IC50 [1, 5] [nM]	IC50 [1, 6] [nM]	IC50 [2] [nM]	IC50 ([1]; Ba/F3 KIT AYdup mutant cell proliferation, read-out: AYdup IC50) [nM]	IC50 ([1]; Ba/F3 KIT AYdup-D816G mutant cell proliferation, read-out: AYdup-D816G IC50) [nM]	Structure (SMILES)	IC50 [3] [nM]
10 to 100	10 to 100	10 to 100	10 to 100			COc1cc(F)c2c(Nc3ccc(NC(=O)NCCC(C)(C)OC)cc3)ncnc2c1 [Example 202]	
10 to 100	10 to 100	10 to 100	10 to 100			COc1cc(F)c2c(Nc3ccc(NC(=O)NCCC(C)(C)C#N)cc3)ncnc2c1 [Example 219]	
			100 to 1000			COCCOc1ccc2c(Nc3ccc(NC(=O)NCCC(C)(C)F)cn3)ncnc2c1 [Example 227]	
100 to 1000	> 1000	> 1000				COc1cc2ncnc(Nc3ccc(NC(=O)NCCC(C)(C)C#N)cc3)c2cc1OC [Example 218]	
			≤ 10			COCCOc1ccc2c(Nc3ccc(NC(=O)NCCC(C)(C)OC)cc3)ncnc2c1 [Example 225]	
			≤ 10			COCCOc1cc(F)c2c(Nc3ccc(NC(=O)NCCC4CC(F)(F)C4)cc3)ncnc2c1 [Example 22]	≤ 10
100 to 1000	100 to 1000	100 to 1000	10 to 100			COCCOc1ccc2ncnc(Nc3ccc(NC(=O)NCCC(C)(C)C#N)cc3)c2c1F [Example 216]	
10 to 100	10 to 100	10 to 100		≤ 10	10 to 100	CC(C)(F)CCNC(=O)Nc1ccc(Nc2ncnc3cc(O[C@H]4CCOC4)cc(F)c23)cc1 [Example 160]	10 to 100
			100 to 1000			COCCOc1ccc2c(Nc3ccc(NC(=O)CC(=O)NCC(C)(C)C)cn3)ncnc2c1 [Example 229]	
> 1000	> 1000	> 1000	> 1000			COCCOc1ccc2ncnc(Nc3ccc(NC(=O)CC(=O)NC(C)(C)C)cc3)c2c1F [Example 208]	
100 to 1000	100 to 1000	10 to 100	≤ 10			COCCOc1ccc2c(Nc3ccc(NC(=O)NCCC(C)(C)F)cc3)ncnc2c1 [Example 220]	
> 1000	100 to 1000	> 1000	10 to 100			COc1cc2ncnc(Nc3ccc(NC(=O)NCCC(C)(C)F)cc3)c2cc1OC [Example 209]	
			100 to 1000			COCCOc1ccc2c(Nc3ccc(NC(=O)CC(=O)NCC(C)(C)C)cc3)ccnc2c1 [Example 223]	
			10 to 100			CC(C)(F)CCNC(=O)Nc1ccc(Nc2ncnc3cc(OCC(=O)O)cc(F)c23)cc1 [Example 224]	
			10 to 100			COCCOc1cc2ncnc(Nc3ccc(NC(=O)NCCC(C)(C)F)cc3)c2cc1OCCOC [Example 222]	
> 1000	> 1000	> 1000	100 to 1000			COCCOc1cc(F)c2c(Nc3ccc(NC(=O)CC(=O)N4[C@@H](C)COC[C@@H]4C)cc3)ncnc2c1 [Example 199]	
10 to 100	100 to 1000	100 to 1000	10 to 100			COCCOc1ccc2c(Nc3ccc(NC(=O)CC(=O)NCC(C)(C)C)cc3)ncnc2c1 [Example 221]	
	> 1000		> 1000			CN(C)CCOc1cc(F)c2c(Nc3ccc(NC(=O)NCCC(C)(C)C#N)cc3)ncnc2c1 [Example 80]	
10 to 100	10 to 100	10 to 100	≤ 10			COc1cc(F)c2c(Nc3ccc(NC(=O)NCCC(C)(C)F)cc3)ncnc2c1 [Example 203]	

IC50 [1, 4] [nM]	IC50 [1, 5] [nM]	IC50 [1, 6] [nM]	IC50 [2] [nM]	IC50 ([1]; Ba/F3 KIT AYdup mutant cell proliferation, read-out: AYdup IC50) [nM]	IC50 ([1]; Ba/F3 KIT AYdup-D816G mutant cell proliferation, read-out: AYdup-D816G IC50) [nM]	Structure (SMILES)	IC50 [3] [nM]
100 to 1000	> 1000	> 1000	10 to 100			COc1cc2ncnc(Nc3ccc(NC(=O)CC(=O)NCC(C)(C)C)cc3)c2cc1OC [Example 213]	
100 to 1000	> 1000	> 1000	100 to 1000			COc1cc2ncnc(Nc3ccc(NC(=O)CC(=O)NCC(C)(C)C)cc3)c2cc1OCCCN1CCOCC1 [Example 206]	
> 1000	100 to 1000	> 1000	> 1000			COCCOc1cc(F)c2c(Nc3ccc(NC(=O)C(=O)NC(C)(C)C)cc3)ncnc2c1 [Example 134]	
10 to 100	10 to 100	10 to 100	10 to 100			COc1cc(F)c2c(Nc3ccc(NC(=O)CC(=O)NCC(C)(C)C)cc3)ncnc2c1 [Example 211]	
100 to 1000	> 1000	> 1000				COCCOc1cc(F)c2c(Nc3ccc(NC(=O)CC(=O)N4[C@H](C)COC[C@@H]4C)cc3)ncnc2c1 [Example 212]	
100 to 1000	> 1000	> 1000	100 to 1000			COCCOc1ccc2ncnc(Nc3ccc(NC(=O)CC(=O)NCC(C)(C)C)cc3)c2c1F [Example 217]	
> 1000	> 1000	> 1000	10 to 100			COc1cc2ncnc(Nc3ccc(NC(=O)NCCC(C)(C)OC)cc3)c2cc1OC [Example 210]	
100 to 1000	> 1000	> 1000	100 to 1000			COCCOc1ccc2ncnc(Nc3ccc(NC(=O)CC(=O)NC4CCCC4)cc3)c2c1F [Example 201]	
10 to 100	10 to 100	10 to 100	10 to 100			COCCOc1cc(F)c2c(Nc3ccc(NC(=O)CC(=O)N4CCC[C@@H]4C(C)C)cc3)ncnc2c1 [Example 214]	
			100 to 1000			COCCOc1ccc2c(Nc3ccc(NC(=O)NCCC(C)(C)C#N)cn3)ncnc2c1 [Example 226]	
> 1000	> 1000	> 1000	> 1000			COCCOc1ccc2c(Nc3ccc(NC(=O)CC(=O)NCC(C)(C)C)cn3)ccnc2c1 [Example 205]	
> 1000	> 1000	> 1000	100 to 1000			COCCOc1ccc2ncnc(Nc3ccc(NC(=O)NCCC(C)(C)F)cc3)c2c1F [Example 200]	
100 to 1000	> 1000	> 1000	100 to 1000			COCCOc1ccc2ncnc(Nc3ccc(NC(=O)CC(=O)NC4CCC4)cc3)c2c1F [Example 207]	
100 to 1000	100 to 1000	100 to 1000	10 to 100			COCCOc1ccc2ncnc(Nc3ccc(NC(=O)NCCC(C)(C)OC)cc3)c2c1F [Example 215]	
100 to 1000	100 to 1000		10 to 100			COCCOc1cc(F)c2c(Nc3ccc(NC(=O)CCC(=O)NC(C)C)cc3)ncnc2c1 [Example 87]	
10 to 100	100 to 1000	10 to 100	10 to 100			COCCOc1cc(OC)c2c(Nc3ccc(NC(=O)CC(=O)NCC(C)(C)C)cc3)ncnc2c1 [Example 204]	
			10 to 100			COCCCc1ccc2c(Nc3ccc(NC(=O)CC(=O)NCC(C)(C)C)cc3)cnnc2c1 [Example 193]	
			10 to 100			COCCOc1ccc2c(Nc3ccc(NC(=O)NCCC(C)(C)OC)cn3)ncnc2c1 [Example 228]	
> 1000	> 1000	100 to 1000				CC(C)(F)CCNC(=O)Nc1ccc(Nc2ncnc3cc(O[C@@H]4CCOC4)cc(F)c23)cc1 [Example 180]	> 1000
